From ChEMBL document CHEMBL2016447, “Cyclopropyl Carboxamides: A New Oral Antimalarial Series Derived from the Tres Cantos Anti-Malarial Set (TCAMS)” (ACS Med Chem Lett, 2011)
Converted amounts (≈) assume the structure as drawn. The source made the active and inactive calls. The rule behind the calls is not given here.

What was measured:
[1] = Half life in human liver microsomes at 100 uM by HPLC analysis; assay type: ADME, Microsome
[2] = tested on: Liver; assay: Intrinsic clearance in mouse liver microsomes assessed per gram of protein at 100 uM by HPLC analysis; assay type: ADME, Microsome
[3] = tested on: Plasmodium falciparum; assay: Antiplasmodial activity against Plasmodium falciparum 3D7 infected in human erythrocytes assessed as inhibition of [3H]hypoxanthine incorporation after 24 hrs by microbeta counter; assay type: functional, organism-based
[4] = tested on: Liver microsomes; assay: Intrinsic clearance in human liver microsomes assessed per gram of protein at 100 uM by HPLC analysis; assay type: ADME, Microsome
[5] = Half life in mouse liver microsomes at 100 uM by HPLC analysis; assay type: ADME, Microsome
[6] = tested on: Plasmodium falciparum; assay: Antiplasmodial activity Plasmodium falciparum 3D70087/N9 infected in NODscidIL2Rgammac-/- mouse assessed as reduction of parasitemia administered 3 days after infection measured on day 3 to 7 by flow cytometry; assay type: functional; details: 3D70087/N9, 72 h
[7] = Protein binding in mouse plasma; assay type: ADME, cell-free; details: read-out: PPB (converted)
[8] = Volume of distribution in CD1 mouse at 2 mg/kg, iv and 20 mg/kg, po by LC/MS analysis; assay type: ADME, organism-based; details: in vivo
[9] = tested on: Mus musculus; assay: AUC (0 to t) in CD1 mouse at 20 mg/kg, po administered with 1% methylcellulose in water by LC/MS analysis; assay type: ADME, organism-based; parameters: dose 20 mg/kg, route oral; details: in vivo
[10] = biological target: 3',5'-cyclic-AMP phosphodiesterase 4B (Homo sapiens) (UniProt Q07343); assay: Activity of PDE4B at 0.3 uM
[11] = Solubility of the compound in DMSO by chemiluminescent nitrogen detection assay; assay type: physicochemical
[12] = biological target: Cytochrome P450 2D6 (Homo sapiens, UniProt P10635); assay: Inhibition of CYP2D6; assay type: ADME
[13] = biological target: Cytochrome P450 3A4 (Homo sapiens, UniProt P08684); assay: Inhibition of CYP3A4; assay type: ADME
[14] = Half life in CD1 mouse at 2 mg/kg, iv administered with 3% solutol, 7% PEG in saline by LC/MS analysis; assay type: ADME, organism-based; parameters: dose 2 mg/kg, route intravenous; details: in vivo
[15] = Cmax in CD1 mouse at 20 mg/kg, po administered with 1% methylcellulose in water by LC/MS analysis; assay type: ADME, organism-based; parameters: dose 20 mg/kg, route oral; details: in vivo
[16] = biological target: T1, Nuclear receptor subfamily 1 group I member 2 (Homo sapiens, UniProt O75469); assay: Activity at PXR at 1 uM
T1 sequence (O75469 whole entry): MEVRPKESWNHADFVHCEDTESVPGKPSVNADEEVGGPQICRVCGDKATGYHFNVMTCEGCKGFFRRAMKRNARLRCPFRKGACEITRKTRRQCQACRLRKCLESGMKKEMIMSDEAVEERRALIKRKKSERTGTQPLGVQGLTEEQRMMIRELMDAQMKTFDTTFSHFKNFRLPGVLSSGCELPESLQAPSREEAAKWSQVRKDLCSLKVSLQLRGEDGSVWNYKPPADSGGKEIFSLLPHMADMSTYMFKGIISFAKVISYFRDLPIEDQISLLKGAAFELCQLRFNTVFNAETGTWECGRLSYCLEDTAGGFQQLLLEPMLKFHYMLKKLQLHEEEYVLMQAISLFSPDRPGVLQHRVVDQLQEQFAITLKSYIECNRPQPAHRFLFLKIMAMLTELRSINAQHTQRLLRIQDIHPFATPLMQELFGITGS

[17] = biological target: Cytochrome P450 2C9 (Homo sapiens, UniProt P11712); assay: Inhibition of CYP2C9; assay type: ADME
[18] = Oral bioavailability in CD1 mouse at 20 mg/kg administered with 1% methylcellulose in water by LC/MS analysis; assay type: ADME, organism-based; details: in vivo
[19] = biological target: Cytochrome P450 2C19 (Homo sapiens, UniProt P33261); assay: Inhibition of CYP2C19; assay type: ADME
[20] = Clearance in CD1 mouse at 2 mg/kg, iv and 20 mg/kg, po by LC/MS analysis; assay type: ADME, organism-based; details: in vivo
[21] = biological target: T1, Nuclear receptor subfamily 1 group I member 2; assay: Activity at PXR at 2.5 uM
[22] = tested on: Mus musculus; assay: AUC (0 to t) in CD1 mouse at 2 mg/kg, iv administered with 3% solutol, 7% PEG in saline by LC/MS analysis; assay type: ADME, organism-based, Plasma; parameters: dose 2 mg/kg, route intravenous; details: in vivo
[23] = Lipophilicity, log D of the compound by chromatographic hydrophobicity index assay; assay type: physicochemical
[24] = tested on: Plasmodium falciparum; assay: Antiplasmodial activity against Plasmodium falciparum 3D7 by parasite lactate dehydrogenase assay; assay type: functional, organism-based
[25] = Volume of distribution in CD1 mouse at 2 mg/kg, iv and 20 mg/kg, po by LC/MS analysis; details: in vivo
[26] = Clearance in CD1 mouse at 2 mg/kg, iv and 20 mg/kg, po by LC/MS analysis; details: in vivo
[27] = Half life in CD1 mouse at 2 mg/kg, iv administered with 20% encapsine in water by LC/MS analysis; details: in vivo
[28] = Protein binding in human plasma; assay type: ADME, cell-free; details: read-out: PPB
[29] = tested on: Mus musculus; assay: AUC (0 to t) in CD1 mouse at 2 mg/kg, iv administered with 20% encapsine in water by LC/MS analysis; details: in vivo

Cytochrome P450 2D6, sequence (P10635 whole entry): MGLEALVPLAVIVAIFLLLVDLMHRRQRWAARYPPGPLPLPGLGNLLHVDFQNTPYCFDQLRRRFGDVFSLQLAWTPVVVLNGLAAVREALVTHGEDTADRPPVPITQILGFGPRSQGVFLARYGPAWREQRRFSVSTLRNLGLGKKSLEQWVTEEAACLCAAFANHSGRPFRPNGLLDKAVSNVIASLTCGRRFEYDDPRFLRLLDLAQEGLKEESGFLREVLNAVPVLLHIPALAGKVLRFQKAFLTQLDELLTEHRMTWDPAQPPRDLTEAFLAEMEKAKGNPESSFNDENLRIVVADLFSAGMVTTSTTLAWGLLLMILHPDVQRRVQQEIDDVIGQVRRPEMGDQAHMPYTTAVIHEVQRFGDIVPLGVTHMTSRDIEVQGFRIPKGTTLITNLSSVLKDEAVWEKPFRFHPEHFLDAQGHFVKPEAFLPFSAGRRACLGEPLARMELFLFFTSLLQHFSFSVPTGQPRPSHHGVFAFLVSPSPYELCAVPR
Cytochrome P450 2C9, sequence (P11712 whole entry): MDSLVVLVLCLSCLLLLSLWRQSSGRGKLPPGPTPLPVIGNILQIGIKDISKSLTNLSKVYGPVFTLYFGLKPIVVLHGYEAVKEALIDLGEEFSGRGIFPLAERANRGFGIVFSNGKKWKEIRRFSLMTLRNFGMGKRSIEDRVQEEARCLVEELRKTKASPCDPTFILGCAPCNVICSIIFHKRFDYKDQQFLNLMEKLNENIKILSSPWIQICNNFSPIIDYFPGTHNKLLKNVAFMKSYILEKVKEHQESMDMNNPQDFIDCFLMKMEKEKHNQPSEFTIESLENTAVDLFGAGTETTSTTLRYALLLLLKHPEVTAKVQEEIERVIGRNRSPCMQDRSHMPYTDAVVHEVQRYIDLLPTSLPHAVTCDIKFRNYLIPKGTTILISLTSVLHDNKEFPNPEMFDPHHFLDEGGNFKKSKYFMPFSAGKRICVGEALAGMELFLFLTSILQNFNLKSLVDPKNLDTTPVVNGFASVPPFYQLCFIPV
Cytochrome P450 3A4, sequence (P08684 whole entry): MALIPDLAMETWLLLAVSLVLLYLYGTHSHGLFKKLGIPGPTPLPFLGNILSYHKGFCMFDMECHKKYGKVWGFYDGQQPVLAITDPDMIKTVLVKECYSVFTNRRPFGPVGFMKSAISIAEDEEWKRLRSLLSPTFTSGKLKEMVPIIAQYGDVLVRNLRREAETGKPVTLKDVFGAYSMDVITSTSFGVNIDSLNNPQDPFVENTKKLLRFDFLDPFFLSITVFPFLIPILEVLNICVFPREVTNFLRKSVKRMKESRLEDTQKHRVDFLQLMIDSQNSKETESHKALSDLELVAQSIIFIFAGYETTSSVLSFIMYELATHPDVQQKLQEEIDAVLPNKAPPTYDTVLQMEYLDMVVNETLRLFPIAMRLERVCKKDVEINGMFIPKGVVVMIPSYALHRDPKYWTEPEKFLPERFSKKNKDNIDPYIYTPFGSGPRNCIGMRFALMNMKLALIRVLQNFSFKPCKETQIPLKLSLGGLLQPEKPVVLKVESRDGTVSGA
Cytochrome P450 2C19, sequence (P33261 whole entry): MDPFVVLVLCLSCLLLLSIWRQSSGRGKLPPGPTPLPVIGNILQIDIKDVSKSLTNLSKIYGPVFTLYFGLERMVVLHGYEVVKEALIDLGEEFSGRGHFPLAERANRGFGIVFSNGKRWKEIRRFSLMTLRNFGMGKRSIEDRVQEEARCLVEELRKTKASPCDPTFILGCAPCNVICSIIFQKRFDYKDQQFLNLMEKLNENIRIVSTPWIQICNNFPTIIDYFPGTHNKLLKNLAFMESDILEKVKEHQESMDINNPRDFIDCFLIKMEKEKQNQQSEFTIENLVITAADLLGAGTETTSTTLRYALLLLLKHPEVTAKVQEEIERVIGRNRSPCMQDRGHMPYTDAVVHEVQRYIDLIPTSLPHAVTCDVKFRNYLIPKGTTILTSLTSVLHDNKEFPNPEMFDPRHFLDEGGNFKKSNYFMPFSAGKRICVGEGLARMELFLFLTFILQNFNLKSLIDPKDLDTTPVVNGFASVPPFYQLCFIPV
3',5'-cyclic-AMP phosphodiesterase 4B (Homo sapiens), sequence (Q07343 whole entry): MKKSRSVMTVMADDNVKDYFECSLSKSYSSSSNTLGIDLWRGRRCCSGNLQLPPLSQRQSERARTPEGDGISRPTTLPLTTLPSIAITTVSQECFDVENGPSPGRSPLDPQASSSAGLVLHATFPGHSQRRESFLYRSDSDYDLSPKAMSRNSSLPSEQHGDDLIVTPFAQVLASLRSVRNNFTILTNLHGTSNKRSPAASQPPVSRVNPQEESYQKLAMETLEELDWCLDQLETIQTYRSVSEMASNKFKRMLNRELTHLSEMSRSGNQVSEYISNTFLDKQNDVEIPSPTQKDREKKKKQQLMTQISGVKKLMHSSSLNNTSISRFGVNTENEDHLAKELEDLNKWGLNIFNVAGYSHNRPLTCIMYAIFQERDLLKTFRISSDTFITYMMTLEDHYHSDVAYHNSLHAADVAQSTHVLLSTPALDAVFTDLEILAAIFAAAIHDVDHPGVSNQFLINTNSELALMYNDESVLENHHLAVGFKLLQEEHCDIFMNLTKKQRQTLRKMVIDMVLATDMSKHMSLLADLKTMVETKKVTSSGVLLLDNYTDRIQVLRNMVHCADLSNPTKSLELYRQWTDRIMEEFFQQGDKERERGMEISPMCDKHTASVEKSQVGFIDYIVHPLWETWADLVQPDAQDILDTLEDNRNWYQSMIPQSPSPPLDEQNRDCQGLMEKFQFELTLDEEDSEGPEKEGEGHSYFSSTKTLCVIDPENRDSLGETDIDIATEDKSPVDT

SMILES: CC(Oc1cccc(Cl)c1)C(=O)Nc1cc(C(F)(F)F)ccc1-n1cncn1 (racemic)
- half-life at 100 µM [1]: > 30 min
- CLint [2]: 7.9 mL/min/g
- IC50 [3]: 327 nM
- CLint [4]: 1.2 mL/min/g
- half-life at 100 µM [5]: 6.2 min

SMILES: CCN(CC)CCCC(C)Nc1ccnc2cc(Cl)ccc12 (configuration not stated) [CHLOROQUINE]
- ED50 [6]: 2 mg/kg

SMILES: O=C(Nc1cc(C(F)(F)F)ccc1-n1cncn1)C1(c2cccc(C(F)(F)F)c2)CC1
- fraction unbound [7]: 0.006
- Vd [8]: 11.9 L/kg
- AUCt [9]: 13.6 µg/h/mL
- Activity [10]: Active
- solubility [11]: 9 µM (≈ 3.96 µg/mL)
- INH [12]: > 10 µM
- INH [13]: > 10 µM
- ED50 [6]: 12 mg/kg
- ED90 [6]: 20 mg/kg
- half-life [14]: 612 min
- Cmax [15]: 1090 ng/mL
- Activity [16]: Active
- INH [17]: 6.3 µM
- bioavailability [18]: 55%
- INH [19]: > 10 µM
- clearance [20]: 14.3 mL/min/kg
- Activity [21]: Active
- AUCt [22]: 2.23 µg/h/mL

SMILES: CC(Oc1ccc(Cl)cc1)C(=O)Nc1cc(C(F)(F)F)ccc1-n1cncn1 (racemic)
- half-life at 100 µM [1]: 21.8 min
- chromatographic logD [23]: 3.84
- CLint [2]: 4.1 mL/min/g
- IC50 [3]: 394 nM
- CLint [4]: 3.3 mL/min/g
- half-life at 100 µM [5]: 13.6 min

SMILES: Cc1ccnc2nc(C(=O)Nc3cc(C(F)(F)F)ccc3N3CCCCC3)nn12
- IC50 [24]: 73 nM
- IC50 [3]: 3970 nM

SMILES: Cc1cc(C)n2nc(C(=O)Nc3cc(C(F)(F)F)ccc3N3CCOCC3)nc2n1
- IC50 [24]: 11 nM
- IC50 [3]: > 5000 nM

SMILES: CC(Oc1ccc(Cl)cc1)C(=O)Nc1cc(C(F)(F)F)ccc1N1CCOCC1 (racemic)
- chromatographic logD [23]: 4.56
- IC50 [3]: 439 nM

SMILES: O=C(Nc1cc(Cl)ccc1-n1cncn1)C1(c2ccccc2)CC1
- IC50 [3]: 1700 nM

SMILES: CC(Oc1ccccc1)C(=O)Nc1cc(C(F)(F)F)ccc1-n1cncn1 (racemic)
- half-life at 100 µM [1]: 24.7 min
- CLint [2]: 5.3 mL/min/g
- IC50 [3]: 897 nM
- CLint [4]: 2.9 mL/min/g
- half-life at 100 µM [5]: 12 min

SMILES: CC(Oc1cccc(C(F)(F)F)c1)C(=O)Nc1cc(C(F)(F)F)ccc1-n1cncn1 (racemic)
- IC50 [3]: 285 nM

SMILES: CC(Oc1ccccc1Cl)C(=O)Nc1cc(C(F)(F)F)ccc1-n1cncn1 (racemic)
- half-life at 100 µM [1]: > 30 min
- CLint [2]: 5.6 mL/min/g
- IC50 [3]: 190 nM
- CLint [4]: 1.6 mL/min/g
- half-life at 100 µM [5]: 11.7 min

SMILES: O=C(Nc1cc(C(F)(F)F)ccc1-n1cncn1)C1(c2ccccc2)CC1
- fraction unbound [7]: 0.01
- Vd [25]: 6.47 L/kg
- clearance [26]: 29.7 mL/min/kg
- half-life [27]: 166 min
- AUCt [9]: 9.71 µg/h/mL
- solubility [11]: 100 µM (≈ 37.2 µg/mL)
- chromatographic logD [23]: 3.83
- INH [12]: > 10 µM
- INH [13]: > 10 µM
- ED50 [6]: > 50 mg/kg
- ED90 [6]: > 50 mg/kg
- fraction unbound [28]: 0.01
- Cmax [15]: 2340 ng/mL
- INH [17]: 7.9 µM
- bioavailability [18]: 81%
- INH [19]: > 10 µM
- IC50 [3]: 66 nM
- Activity [21]: Active
- AUCt [29]: 0.596 µg/h/mL
